Test results published in patent US11471442B2, “Administration of gut-selective JAK3 inhibitor” (THERAVANCE BIOPHARMA R&D IP, LLC, priority 2020, dated 2022).

Columns and labels:
NK cells = test: NK cell counts (immunophenotyping) in MAD cohorts; format: in vivo, human; settings: day 1 to day 10, MAD
Protocol: Immunophenotyping was conducted on NK Cells in part B only.

JAK3 [1] = target: T1, JAK3 (Homo sapiens, UniProt P52333); test: Co-crystal structure with human JAK3; format: binding
T1 sequence (P52333 1-1124): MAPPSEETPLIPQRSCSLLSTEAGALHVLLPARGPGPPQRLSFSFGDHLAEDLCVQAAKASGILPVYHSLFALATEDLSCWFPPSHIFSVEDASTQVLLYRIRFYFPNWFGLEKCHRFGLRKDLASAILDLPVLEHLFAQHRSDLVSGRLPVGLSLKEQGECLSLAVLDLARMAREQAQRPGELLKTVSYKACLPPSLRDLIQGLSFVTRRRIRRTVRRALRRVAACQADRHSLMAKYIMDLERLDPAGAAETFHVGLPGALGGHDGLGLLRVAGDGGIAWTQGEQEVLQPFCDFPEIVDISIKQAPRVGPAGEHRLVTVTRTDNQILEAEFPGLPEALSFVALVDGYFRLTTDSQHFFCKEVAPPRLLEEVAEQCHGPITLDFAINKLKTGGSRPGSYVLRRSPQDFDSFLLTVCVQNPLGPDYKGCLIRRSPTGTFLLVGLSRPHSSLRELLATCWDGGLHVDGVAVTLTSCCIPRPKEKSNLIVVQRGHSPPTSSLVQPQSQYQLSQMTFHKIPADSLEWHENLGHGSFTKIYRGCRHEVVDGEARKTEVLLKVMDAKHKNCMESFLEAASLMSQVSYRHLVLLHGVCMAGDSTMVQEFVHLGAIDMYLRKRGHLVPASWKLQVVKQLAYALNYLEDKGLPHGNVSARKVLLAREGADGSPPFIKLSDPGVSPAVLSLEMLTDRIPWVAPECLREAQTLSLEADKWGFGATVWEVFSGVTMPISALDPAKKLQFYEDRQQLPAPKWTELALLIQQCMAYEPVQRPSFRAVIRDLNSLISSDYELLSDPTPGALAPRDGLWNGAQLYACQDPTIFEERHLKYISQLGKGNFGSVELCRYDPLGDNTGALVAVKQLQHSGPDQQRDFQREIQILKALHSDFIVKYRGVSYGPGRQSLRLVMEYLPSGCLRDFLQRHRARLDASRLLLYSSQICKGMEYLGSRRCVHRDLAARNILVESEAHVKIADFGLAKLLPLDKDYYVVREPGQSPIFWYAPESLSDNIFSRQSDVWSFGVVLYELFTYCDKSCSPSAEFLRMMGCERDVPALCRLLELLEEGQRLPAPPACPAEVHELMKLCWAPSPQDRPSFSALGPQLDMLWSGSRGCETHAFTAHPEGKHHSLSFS
From the text: Such covalent binding to JAK3 could be beneficial by providing an extended target engagement which may translate in better efficacy.

IL-2 induced pSTAT5 = test: Murine model of IL-2 induced pSTAT5 induction in the thymus; format: in vivo
JAK3 [2] = target: T1, JAK3; test: Protein-adjusted JAK3 IC50 (reference value, data on file); format: cell-based
From the text: In FIG. 11B, gray box indicates day 1 of MAD portion. Symbols and error bars represent the arithmetic mean plus SD, and reference IC50 values shown are from data on file. BID, twice daily; HuPBMC, human peripheral blood mononuclear cell; IC50, concentration producing 50% of maximal inhibition.

For CN(C)C/C=C/C(=O)N1CC(COc2cc(-c3ccc(O)cc3)cc3[nH]ncc23)C1 [compound of formula (I)], the “changes in absolute or relative NK cell counts” value (NK cells) was “no apparent changes”, the “binding nature to JAK3 (co-crystal structure, covalent bond with Cys909)” value (JAK3 [1]) was “irreversible binding” and the “systemic activity (IL-2 induced pSTAT5 induction in the thymus)” value (IL-2 induced pSTAT5) was “lack of systemic activity”. For the same molecule, the IC50 (JAK3 [2]) was 0.369 µM.
